Tests used:
RIPK1 = RIPK1 (Homo sapiens (Human), UniProt Q13546); assay: ADP-Glo kinase assay (RIPK1 activity, conversion of ATP to ADP); type: biochemical; conditions: 5 nM RIPK1, 50 μM ATP, 6 h reaction; read-out: RIPK1 Enzyme Avg IC50
Outline: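 ADP-Glo luminescence of ATP-to-ADP conversion by 5 nM RIPK1 with 50 μM ATP (final), 6 h reaction after 10 min compound preincubation at rt. Buffer was 50 mM HEPES pH 7.5, 30 mM MgCl2, 0.05% BSA, 0.02% CHAPS. IC50 from four-parameter logistic fit.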

[1] = tested on: human monocytic cell line U937; assay: Human U937 cellular necroptosis assay (TNFalpha + z-VAD-FMK, Cell Titer-Glo viability); type: cell-based; conditions: Homo sapiens, U-937, 22 h, U937 cells, 25 ng/mL human TNFalpha + 25 μM z-VAD-FMK, read-out: hU937 Avg IC50
Outline: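 Cells resuspended in phenol red-free RPMI with 10% FBS, stimulated with 25 ng/mL human TNFalpha plus 25 μM z-VAD-FMK, then given serially diluted compound for 22 h at 37° C, 5% CO2. Viability by Cell Titer-Glo 2.0 luminescence; IC50 from four-parameter logistic fit, averaged across runs.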

Chain of RIPK1 (Q13546 1-327): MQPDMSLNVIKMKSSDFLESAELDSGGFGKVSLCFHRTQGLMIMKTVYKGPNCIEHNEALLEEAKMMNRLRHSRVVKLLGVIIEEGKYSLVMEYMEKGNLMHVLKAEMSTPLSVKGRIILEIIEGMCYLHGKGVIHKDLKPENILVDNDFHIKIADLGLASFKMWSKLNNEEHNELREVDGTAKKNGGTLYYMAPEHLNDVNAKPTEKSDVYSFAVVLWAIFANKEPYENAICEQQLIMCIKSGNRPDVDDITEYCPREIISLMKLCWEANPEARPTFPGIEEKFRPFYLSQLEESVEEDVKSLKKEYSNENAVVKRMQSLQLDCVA

SMILES	IC50 (RIPK1) [nM]	IC50 [1] [nM]
N#Cc1cnc2cn(CC34CC(C(=O)N5N=CCC5c5cc(F)cc(F)c5)(C3)C4)nc2c1 (stereo not drawn) [Example 222, 2-((3-(5-(3,5-difluorophenyl)-4,5-dihydro-1H-pyrazole-1-carbonyl)bicyclo[1.1.1]pentan-1-yl)methyl)-2H-pyrazolo[4,3-b]pyridine-6-carbonitrile]	220	1100
COc1cccc(C(F)C23CC(C(=O)N4N=CCC4c4cc(F)cc(F)c4)(C2)C3)c1 (stereo not drawn) [Example 226, (5-(3,5-difluorophenyl)-4,5-dihydro-1H-pyrazol-1-yl)(3-(fluoro(3-methoxyphenyl)-methyl)bicyclo[1.1.1]pentan-1-yl)methanone]	35	51
COc1ccc(C(F)C23CC(C(=O)N4N=CCC4c4cc(F)cc(F)c4)(C2)C3)cc1 (stereo not drawn) [Example 228, (5-(3,5-difluorophenyl)-4,5-dihydro-1H-pyrazol-1-yl)(3-(fluoro(4-methoxyphenyl)-methyl)bicyclo[1.1.1]pentan-1-yl)methanone]	433	2400
N#Cc1ccc2c(cnn2CC23CC(C(=O)N4CCC4c4ccccc4F)(C2)C3)c1 (stereo not drawn) [Example 248, 1-((3-(2-(2-fluorophenyl)-azetidine-1-carbonyl)bicyclo-[1.1.1]pentan-1-yl)methyl)-1H-indazole-5-carbonitrile]	23	186
N#Cc1ccc2c(cnn2CC23CC(C(=O)N4N=CCC4c4ccc5nccn5c4)(C2)C3)c1 (stereo not drawn) [Example 258, 1-((3-(5-(imidazo[1,2-a]-pyridin-6-yl)-4,5-dihydro-1H-pyrazole-1-carbonyl)bicyclo-[1.1.1]pentan-1-yl)methyl)-1H-indazole-5-carbonitrile]	1010	3820

Continued by falling IC50 (RIPK1), values first:

IC50 (RIPK1) [nM]	SMILES	IC50 [1] [nM]
528	N#Cc1ccc2c(cnn2CC23CC(C(=O)N4CCC4c4cccc(Cl)c4Cl)(C2)C3)c1 (stereo not drawn) [Example 260, 1-((3-(2-(2,3-dichlorophenyl)-azetidine-1-carbonyl)bicyclo-[1.1.1]pentan-1-yl)methyl)-1H-indazole-5-carbonitrile]	5600
223	N#Cc1ccc2c(cnn2CC23CC(C(=O)N4CCC4c4ccc(Cl)cc4)(C2)C3)c1 (stereo not drawn) [Example 233, 1-((3-(2-(4-chlorophenyl)-azetidine-1-carbonyl)bicyclo-[1.1.1]pentan-1-yl)methyl)-1H-indazole-5-carbonitrile]	1190
211	N#Cc1ccc2c(cnn2CC23CC(C(=O)N4CCC4c4ccc(F)cc4)(C2)C3)c1 (stereo not drawn) [Example 234, 1-((3-(2-(4-fluorophenyl)-azetidine-1-carbonyl)bicyclo-[1.1.1]pentan-1-yl)methyl)-1H-indazole-5-carbonitrile]	1970
93	O=C(N1N=CCC1c1cc(F)cc(F)c1)C12CC(C(O)c3cccc(Cl)c3)(C1)C2 (stereo not drawn) [Example 230, (3((3-chlorophenyl)-(hydroxy)methyl)bicyclo-[1.1.1]pentan-1-yl)(5-(3,5-difluorophenyl)-4,5-dihydro-1H-pyrazol-1-yl)methanone]	407
51	N#Cc1ccc2c(cnn2CC23CC(C(=O)N4N=CC[C@H]4c4cc(F)cc(F)c4)(C2)C3)c1 [Example 253, (S)-1-((3-(5-(3,5-difluoro-phenyl)-4,5-dihydro-1H-pyrazole-1-carbonyl)bicyclo-[1.1.1]pentan-1-yl)methyl)-1H-indazole-5-carbonitrile]	479
49	N#Cc1ccc2c(cnn2CC23CC(C(=O)N4CCC4c4cccs4)(C2)C3)c1 (stereo not drawn) [Example 255, 1-((3-(2-(thiophen-2-yl)-azetidine-1-carbonyl)bicyclo-[1.1.1]pentan-1-yl)methyl)-1H-indazole-5-carbonitrile]	550
43	N#Cc1ccc2c(cnn2CC23CC(C(=O)N4CCC4c4cccc(F)c4)(C2)C3)c1 (stereo not drawn) [Example 252, 1-((3-(2-(3-fluorophenyl)-azetidine-1-carbonyl)bicyclo-[1.1.1]pentan-1-yl)methyl)-1H-indazole-5-carbonitrile]	436

— patent US20250214942A1, “INHIBITORS OF RECEPTOR INTERACTING PROTEIN KINASE I FOR THE TREATMENT OF DISEASE” (Board of Regents, The University of Texas System, priority 2019, published 2025)
